Reference: patent publication US8481538B2, “Heterocyclic inhibitors of c-Met and uses thereof” (Vertex Pharmaceuticals Incorporated, priority 2006, dated 2013)
pKi: −log10 of the molar value.

Molecular target: c-Met (Homo sapiens, UniProt P08581)
Assay: Ki determination for the inhibition of c-Met (standard radiometric kinase assay)
Type: biochemical
Conditions: radiometric 33P-ATP assay, 1.0 nM c-Met, 35 μM ATP, 0.5 mg/mL polyE4Y, competitive tight-binding fit
Description: Ki Determination for the Inhibition of c-Met
Compounds of the invention were screened for their ability to inhibit c-Met kinase activity using a standard radiometric assay. Briefly, in this kinase assay the transfer of the terminal ^33P-phosphate in ^33P-ATP to substrate polyE4Y is interrogated. The assay was carried out in 96-well plates to a final volume of 100 μL per well containing 1.0 nM c-Met, 100 mM HEPES (pH 7.5), 10 mM MgCl2, 25 mM NaCl, 0.01% BSA, 1 mM DTT, 0.5 mg/mL polyE4Y, and 35 μM ATP. Accordingly, compounds of the invention were dissolved in DMSO to make 10 mM initial stock solutions. Serial dilutions in DMSO were then made to obtain the final solutions for the assay. A 1.5 μL aliquot of DMSO or inhibitor in DMSO was added to each well. The reaction was initiated by the addition of ^33P-ATP and polyE4Y (obtained from Sigma). After 20 min, the reaction was quenched with 50 μL of 30% trichloroacetic acid (TCA) containing 4 mM ATP. The reaction mixture was transferred to the 0.66 mm GF filter plates (Corning) and washed three times with 5% TCA. Following the addition of 50 μL of Ultimate Gold™ high efficiency scintillant (Packard Bioscience), the samples were counted in a Packard TopCount NXT Microplate Scintillation and Luminescence Counter (Packard BioScience). The Ki values were calculated using Microsoft Excel Solver macros to fit the data to the kinetic model for competitive tight-binding inhibition.

c-Met, sequence (P08581 25-1390): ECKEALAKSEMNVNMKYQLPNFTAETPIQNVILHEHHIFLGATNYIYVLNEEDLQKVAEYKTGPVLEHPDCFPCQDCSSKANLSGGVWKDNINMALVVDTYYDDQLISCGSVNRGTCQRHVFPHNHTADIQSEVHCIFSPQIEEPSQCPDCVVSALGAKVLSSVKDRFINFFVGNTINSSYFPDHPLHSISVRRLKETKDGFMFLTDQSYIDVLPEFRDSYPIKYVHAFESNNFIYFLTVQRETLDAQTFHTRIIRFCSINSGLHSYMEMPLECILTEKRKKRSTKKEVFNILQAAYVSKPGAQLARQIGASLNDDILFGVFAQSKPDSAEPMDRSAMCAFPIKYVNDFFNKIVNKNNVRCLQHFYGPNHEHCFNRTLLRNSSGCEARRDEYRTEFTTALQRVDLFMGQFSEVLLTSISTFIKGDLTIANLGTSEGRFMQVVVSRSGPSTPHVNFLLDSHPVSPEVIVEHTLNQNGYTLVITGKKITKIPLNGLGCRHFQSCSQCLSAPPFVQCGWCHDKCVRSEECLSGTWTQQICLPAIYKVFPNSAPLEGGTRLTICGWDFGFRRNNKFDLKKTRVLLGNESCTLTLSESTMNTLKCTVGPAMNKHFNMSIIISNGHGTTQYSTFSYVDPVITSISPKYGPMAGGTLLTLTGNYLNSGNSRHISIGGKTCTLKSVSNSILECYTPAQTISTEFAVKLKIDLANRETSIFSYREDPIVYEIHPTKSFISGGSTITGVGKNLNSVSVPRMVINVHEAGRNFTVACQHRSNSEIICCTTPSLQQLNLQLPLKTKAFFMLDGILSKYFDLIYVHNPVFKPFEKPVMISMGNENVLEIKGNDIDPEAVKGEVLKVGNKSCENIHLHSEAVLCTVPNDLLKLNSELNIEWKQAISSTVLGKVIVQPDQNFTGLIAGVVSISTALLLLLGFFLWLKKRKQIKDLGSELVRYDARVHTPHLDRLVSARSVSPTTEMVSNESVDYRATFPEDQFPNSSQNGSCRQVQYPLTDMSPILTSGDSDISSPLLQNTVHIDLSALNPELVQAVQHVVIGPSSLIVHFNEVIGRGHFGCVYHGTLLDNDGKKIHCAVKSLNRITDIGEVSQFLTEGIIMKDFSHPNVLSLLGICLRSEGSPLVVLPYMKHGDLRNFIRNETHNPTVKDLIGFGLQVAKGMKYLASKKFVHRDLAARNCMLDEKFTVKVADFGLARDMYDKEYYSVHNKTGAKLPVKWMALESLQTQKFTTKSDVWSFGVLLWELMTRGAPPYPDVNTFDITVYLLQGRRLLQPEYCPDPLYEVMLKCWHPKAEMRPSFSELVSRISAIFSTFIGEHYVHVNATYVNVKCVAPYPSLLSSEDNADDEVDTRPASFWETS

SMILES	pKi
CN(Cc1cccnc1)Cc1nnc2ccc(Nc3cccc(Cl)c3)nn12 [Compound 1]	≥ 6.60
Clc1cccc(Nc2ccc3nnc(COCc4cccnc4)n3n2)c1 [Compound 2, 3-(((pyridin-3-yl)methoxy)methyl)-N-(3-chlorophenyl)-[1,2,4]triazolo[4,3-b]pyridazin-6-amine]	≥ 6.60
Clc1cccc(Nc2ccc3nnc(CNCc4ccccn4)n3n2)c1 [Compound 3]	< 5.60
Clc1cccc(Nc2ccc3nnc(CNCc4cccnc4)n3n2)c1 [Compound 4]	< 5.60
O=C(Cc1nnc2ccc(Nc3cccc(Cl)c3)nn12)Nc1cnccn1 [Compound 5]	< 5.60
O=C(Cc1nnc2ccc(Nc3cccc(Cl)c3)nn12)NCc1cccnc1 [Compound 6]	< 5.60
CN(C(=O)Cc1nnc2ccc(Nc3cccc(Cl)c3)nn12)c1ccccn1 [Compound 7]	< 5.60
Nc1cccnc1NC(=O)Cc1nnc2ccc(Nc3cccc(Cl)c3)nn12 [Compound 8]	5.60 to 6.60
C[C@@H](NC(=O)c1cccnc1)c1nnc2ccc(Nc3cccc(Cl)c3)nn12 [Compound 10]	< 5.60
CN(Cc1cccnc1N)Cc1nnc2ccc(Nc3cccc(Cl)c3)nn12 [Compound 11, N-(3-chlorophenyl)-3-(2-(N-((2-aminopyridin-3-yl)methyl)-N-(methyl)amino)methyl)-[1,2,4]triazolo[4,3-b]pyridazin-6-amine]	5.60 to 6.60
CN(Cc1nnc2ccc(Nc3cccc(Cl)c3)nn12)C(=O)c1cccnc1 [Compound 12]	< 5.60
C[C@@H](NC(=O)c1cccnc1N)c1nnc2ccc(Nc3cccc(Cl)c3)nn12 [Compound 13]	5.60 to 6.60
C[C@@H](NC(=O)c1nccnc1N)c1nnc2ccc(Nc3cccc(Cl)c3)nn12 [Compound 14, N—((R)-1-(6-(3-chlorophenylamino)-[1,2,4]triazolo[4,3-b]pyridazin-3-yl)ethyl)-3-aminopyrazine-2-carboxamide]	≥ 6.60
C[C@@H](NC(=O)Nc1cccnc1)c1nnc2ccc(Nc3cccc(Cl)c3)nn12 [Compound 15, 1-((R)-1-(6-(3-chlorophenylamino)-[1,2,4]triazolo[4,3-b]pyridazin-3-yl)ethyl)-3-(pyridin-3-yl)urea]	5.60 to 6.60
C[C@@H](NC(=O)c1cnc2ccccc2n1)c1nnc2ccc(Nc3cccc(Cl)c3)nn12 [Compound 16]	5.60 to 6.60
C[C@@H](NC(=O)c1cc(Br)cnc1N)c1nnc2ccc(Nc3cccc(Cl)c3)nn12 [Compound 17]	5.60 to 6.60
C[C@@H](NC(=O)c1nc(Br)cnc1N)c1nnc2ccc(Nc3cccc(Cl)c3)nn12 [Compound 18]	5.60 to 6.60
Clc1cccc(Nc2ccc3nnc(COCc4cnccn4)n3n2)c1 [Compound 19]	< 5.60
Clc1cccc(Nc2ccc3nnc(CNc4n[nH]c5ncccc45)n3n2)c1 [Compound 20]	≥ 6.60
C[C@@H](NC(=O)c1nc(-c2ccccc2)cnc1N)c1nnc2ccc(Nc3cccc(Cl)c3)nn12 [Compound 21]	≥ 6.60
CC(=O)Nc1ccc(-c2cnc(N)c(C(=O)N[C@H](C)c3nnc4ccc(Nc5cccc(Cl)c5)nn34)n2)cc1 [Compound 22]	≥ 6.60
C[C@@H](NC(=O)c1cc(-c2ccccc2)cnc1N)c1nnc2ccc(Nc3cccc(Cl)c3)nn12 [Compound 23]	≥ 6.60

SMILES	pKi
CC(=O)Nc1ccc(-c2cnc(N)c(C(=O)N[C@H](C)c3nnc4ccc(Nc5cccc(Cl)c5)nn34)c2)cc1 [Compound 24]	≥ 6.60
CCC(C)Nc1ccc2nnc([C@@H](C)NC(=O)c3nc(-c4ccccc4)cnc3N)n2n1 (stereo partly shown) [Compound 25]	5.60 to 6.60
CCC(C)Nc1ccc2nnc([C@@H](C)NC(=O)c3nc(-c4ccc(NC(C)=O)cc4)cnc3N)n2n1 (stereo partly shown) [Compound 26]	5.60 to 6.60
C[C@@H](NC(=O)c1nc(-c2cnn(C)c2)cnc1N)c1nnc2ccc(Nc3cccc(Cl)c3)nn12 [Compound 27]	≥ 6.60
C[C@H](NC(=O)c1nc(-c2ccccc2)cnc1N)c1nnc2ccc(Nc3cccc(Cl)c3)nn12 [Compound 28]	5.60 to 6.60
C[C@@H](NC(=O)c1nc(-c2cccs2)cnc1N)c1nnc2ccc(Nc3cccc(Cl)c3)nn12 [Compound 29]	≥ 6.60
Nc1ncc(-c2ccccc2)nc1C(=O)N[C@H](CO)c1nnc2ccc(Nc3cccc(Cl)c3)nn12 [Compound 30]	≥ 6.60
C[C@@H](NC(=O)c1nc(-c2ccsc2)cnc1N)c1nnc2ccc(Nc3cccc(Cl)c3)nn12 [Compound 31]	≥ 6.60
C[C@@H](NC(=O)c1nc(-c2ccoc2)cnc1N)c1nnc2ccc(Nc3cccc(Cl)c3)nn12 [Compound 32]	≥ 6.60
C[C@@H](NC(=O)c1nc(C2=CCCC2)cnc1N)c1nnc2ccc(Nc3cccc(Cl)c3)nn12 [Compound 33]	≥ 6.60
CC[C@@H](NC(=O)c1nc(-c2ccccc2)cnc1N)c1nnc2ccc(Nc3cccc(Cl)c3)nn12 [Compound 34]	5.60 to 6.60
CC(C)[C@@H](NC(=O)c1nc(-c2ccccc2)cnc1N)c1nnc2ccc(Nc3cccc(Cl)c3)nn12 [Compound 35]	< 5.60
C#Cc1cnc(N)c(C(=O)N[C@H](C)c2nnc3ccc(Nc4cccc(Cl)c4)nn23)n1 [Compound 36]	≥ 6.60
C=Cc1cnc(N)c(C(=O)N[C@H](C)c2nnc3ccc(Nc4cccc(Cl)c4)nn23)n1 [Compound 37]	≥ 6.60
C[C@@H](NC(=O)c1nc(C#N)cnc1N)c1nnc2ccc(Nc3cccc(Cl)c3)nn12 [Compound 38]	≥ 6.60
C[C@@H](NC(=O)c1nc(C(N)=O)cnc1N)c1nnc2ccc(Nc3cccc(Cl)c3)nn12 [Compound 39]	≥ 6.60
C[C@@H](NC(=O)c1nc(C2CCCC2)cnc1N)c1nnc2ccc(Nc3cccc(Cl)c3)nn12 [Compound 40]	≥ 6.60
C[C@@H](NC(=O)c1nc(-c2cccnc2)cnc1N)c1nnc2ccc(Nc3cccc(Cl)c3)nn12 [Compound 41]	≥ 6.60
C[C@@H](NC(=O)c1nc(-c2ccncc2)cnc1N)c1nnc2ccc(Nc3cccc(Cl)c3)nn12 [Compound 42]	≥ 6.60
C[C@@H](NC(=O)c1nc(C#CCO)cnc1N)c1nnc2ccc(Nc3cccc(Cl)c3)nn12 [Compound 43]	≥ 6.60
C[C@@H](NC(=O)c1nc(C#CCCO)cnc1N)c1nnc2ccc(Nc3cccc(Cl)c3)nn12 [Compound 44]	≥ 6.60
C[C@@H](NC(=O)c1nc(C#CC2(O)CCCC2)cnc1N)c1nnc2ccc(Nc3cccc(Cl)c3)nn12 [Compound 45]	5.60 to 6.60

SMILES	pKi
CCC(O)C#Cc1cnc(N)c(C(=O)N[C@H](C)c2nnc3ccc(Nc4cccc(Cl)c4)nn23)n1 (stereo partly shown) [Compound 46]	≥ 6.60
CCN(CC)CC#Cc1cnc(N)c(C(=O)N[C@H](C)c2nnc3ccc(Nc4cccc(Cl)c4)nn23)n1 [Compound 47]	≥ 6.60
C[C@@H](NC(=O)c1nc(C#Cc2ccccc2)cnc1N)c1nnc2ccc(Nc3cccc(Cl)c3)nn12 [Compound 48]	5.60 to 6.60
C[C@@H](NC(=O)c1nc(C#CCC2CCCC2)cnc1N)c1nnc2ccc(Nc3cccc(Cl)c3)nn12 [Compound 49]	5.60 to 6.60
CCCC#Cc1cnc(N)c(C(=O)N[C@H](C)c2nnc3ccc(Nc4cccc(Cl)c4)nn23)n1 [Compound 50]	5.60 to 6.60
C[C@@H](NC(=O)c1nc(C#CC(C)(C)C)cnc1N)c1nnc2ccc(Nc3cccc(Cl)c3)nn12 [Compound 51]	5.60 to 6.60
CCc1cnc(N)c(C(=O)N[C@H](C)c2nnc3ccc(Nc4cccc(Cl)c4)nn23)n1 [Compound 52]	5.60 to 6.60
C[C@@H](NC(=O)c1nc(C#Cc2ccccn2)cnc1N)c1nnc2ccc(Nc3cccc(Cl)c3)nn12 [Compound 53]	5.60 to 6.60
Cc1n[nH]c(C)c1-c1cnc(N)c(C(=O)N[C@H](C)c2nnc3ccc(Nc4cccc(Cl)c4)nn23)n1 [Compound 54]	≥ 6.60
C[C@@H](NC(=O)c1nc(-c2ccc(CN3CCCC3)cc2)cnc1N)c1nnc2ccc(Nc3cccc(Cl)c3)nn12 [Compound 55]	≥ 6.60
C[C@@H](NC(=O)c1nc(C#Cc2cccnc2)cnc1N)c1nnc2ccc(Nc3cccc(Cl)c3)nn12 [Compound 56]	5.60 to 6.60
C[C@@H](NC(=O)c1nc(C#Cc2ccncc2)cnc1N)c1nnc2ccc(Nc3cccc(Cl)c3)nn12 [Compound 57]	5.60 to 6.60
CC(=O)Nc1cccc(-c2cnc(N)c(C(=O)N[C@H](C)c3nnc4ccc(Nc5cccc(Cl)c5)nn34)n2)c1 [Compound 58]	≥ 6.60
C[C@@H](NC(=O)c1nc(C#CC2CC2)cnc1N)c1nnc2ccc(Nc3cccc(Cl)c3)nn12 [Compound 61]	5.60 to 6.60
C[C@@H](NC(=O)c1nc(-c2cnn(C3CCNCC3)c2)cnc1N)c1nnc2ccc(Nc3cccc(Cl)c3)nn12 [Compound 62]	≥ 6.60
C[C@@H](NC(=O)c1cc(-c2cnn(C)c2)cnc1N)c1nnc2sc(Nc3cccc(Cl)c3)nn12 [Compound 63]	5.60 to 6.60
C[C@@H](NC(=O)c1nc(-c2ccccc2)cnc1N)c1nnc2ccc(Cl)nn12 [Compound 64]	5.60 to 6.60
C[C@@H](NC(=O)c1nc(-c2ccc(CN)cc2)cnc1N)c1nnc2ccc(Nc3cccc(Cl)c3)nn12 [Compound 65]	≥ 6.60
C[C@@H](NC(=O)c1nc(-c2ccc(CN3CC[C@@H](O)C3)cc2)cnc1N)c1nnc2ccc(Nc3cccc(Cl)c3)nn12 [Compound 66]	≥ 6.60
C[C@@H](NC(=O)c1nc(-c2ccc(CN3CC[C@H](O)C3)cc2)cnc1N)c1nnc2ccc(Nc3cccc(Cl)c3)nn12 [Compound 67]	≥ 6.60
